Consider one compound from patent US20070027195A1, “Novel compositions comprising higher primary alcohols and nicottinic acid and process of preparation thereof” (PANACEA BIOTEC LTD., priority 2004, published 2007).

Marks after values point to notes of the source that are not given here.

This assay deals with mice fed with hypercholesterolemic diet. Briefly: Cholesterol diet-induced hypercholesterolemia in mice (serum lipid profile). In kind it is in vivo, Swiss mice. Particulars: for HDL-C / LDL-C / Total cholesterol / Triglycerides / VLDL-C: hypercholesterolemic diet, fasting serum, mean ± S.E.M. As to the method: In the present invention, the observed unexpected synergistic lipid lowering effect of combination of Extract-A and nicotinic acid is evidenced by the test conducted in mice. Swiss mice of either sex were procured from Central Animal House facility; Panacea Biotec Ltd., India. Animals weighing 20-25 g at the time of testing were used throughout. All animals were dosed sequentially by the oral route with Extract-A and/or nicotinic acid suspended in 0.5% of carboxy methyl cellulose (CMC). A dosing volume of 10 ml/kg was used for each sequential suspension.
The fasting serum lipid profile (TC, TGs, LDL-C, HDL-C, and VLDL) was estimated before initiation of the experiment. Total study duration was of 8 weeks. Hypercholesterolemia was induced by feeding standard chow mixed with 1% cholesterol and 0.2% cholic acid to mice (Kaur and Kulkarni, 2000). Control animals received standard mice chow for 8 weeks whereas cholesterolemic control animals received hypercholesterolemic diet for 8 weeks. The presence of hyperlipidemia in mice was confirmed by estimating serum lipid parameters after 4 weeks. Thereafter, various doses of Extract-A and/or nicotinic acid were administered for another 4 weeks during which animals were fed with high cholesterol diet. Blood samples were collected from fasted mice and analyzed for any alteration in serum lipid profile after 4 weeks of test compound(s) administration.
All the data were expressed as mean ±S.E.M. (Standard Error of Mean). Student t-test was used to compare the lipid parameters between animals fed with standard and hypercholesterolemic diet. The difference between various drug treated groups was analyzed by ANOVA followed by Dunnett's test. A value of P<0.05 was considered as statistically significant.

Consider `O=C(O)c1cccnc1` [Nicotinic acid], for which, where the note is “10 mg/kg p.o. for 4 weeks”, the HDL-C was 45.82 ± 4.9^a mg/dl, the LDL-C is recorded as 65.5 ± 7.01^a mg/dl, the Total cholesterol is 118.0 ± 4.3^a mg/dl and the Triglycerides is given as 33.3 ± 2.6^a mg/dl. Also, for the setting “10 mg/kg p.o. for 4 weeks”, the VLDL-C is on record as 20 ± 0.52^a mg/dl. Where the note is “20 mg/kg p.o. for 4 weeks”, the HDL-C was 42.16 ± 3.19^a mg/dl, the LDL-C is 61.2 ± 2.14^a mg/dl, the Total cholesterol is listed as 109.5 ± 1.60^a mg/dl and the Triglycerides is reported as 30.66 ± 1.58^a mg/dl. Also, the VLDL-C (20 mg/kg p.o. for 4 weeks) is 6.13 ± 0.31^a mg/dl. For the setting “40 mg/kg p.o. for 4 weeks”, the HDL-C was 51.33 ± 2.04^a mg/dl, the LDL-C is on record as 44.53 ± 2.17^a mg/dl, the Total cholesterol is reported as 101.6 ± 2.59^a mg/dl and the Triglycerides is on record as 29.0 ± 1.46^a mg/dl. For the same compound, the VLDL-C (40 mg/kg p.o. for 4 weeks) is recorded as 5.8 ± 0.29^a mg/dl. The “Effect on serum lipid parameters in comparison to hypercholesterolemic control (in words)” value (10-40 mg/kg, p.o., dose dependently) is given as “reversed all the serum lipid parameters”.
